Marks after values point to notes of the source that are not given here.
Assays:
Format in all cases: in vivo
[1] = system: Puccinia recondite f. sp. tritici (the causal agent of wheat leaf rust); experiment: Test A: wheat leaf rust, preventive spray on wheat seedlings, visual disease rating; conditions: wheat leaf rust, preventive spray on wheat seedlings
In short: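 This was a preventive test: Puccinia recondite f. sp. tritici inoculum was applied one day after compound spray to run-off. Test suspensions were made in 50/50 acetone/water with 250 ppm surfactant, at 200 ppm (800 g/ha equivalent) or 40 ppm. Visual ratings of % disease control relative to controls were made after 24 h of saturated humidity and 7 growth-chamber days, all at 20° C.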

[2] = system: Blumeria graminis f. sp. tritici (also known as Erysiphe graminis f. sp. tritici, the causal agent of wheat powdery mildew); experiment: Test D: wheat powdery mildew, preventive spray on wheat seedlings, visual disease rating; conditions: wheat powdery mildew, preventive spray on wheat seedlings
In short: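 Preventive test: seedlings sprayed to run-off and inoculated with powdery mildew spores one day later. Suspensions were made in 50/50 acetone/water with 250 ppm Trem 014 surfactant (200 ppm equals 800 g/ha). Visual ratings after 8 days at 20 °C give percent disease control versus controls.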

[3] = system: Septoria tritici (the causal agent of wheat leaf blotch); experiment: Test B: wheat leaf blotch, preventive spray on wheat seedlings, visual disease rating; conditions: wheat leaf blotch, preventive spray on wheat seedlings
In short: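 Preventive test: Septoria tritici spores applied one day after run-off spraying of seedlings (200 ppm equals 800 g/ha; some tests 40 ppm). After 48 h at 24 °C saturated atmosphere and 19 days at 20 °C, disease scored visually as % control relative to untreated plants.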

[4] = system: Botrytis cinerea (the causal agent of tomato Botrytis); experiment: Test C: tomato Botrytis, preventive spray on tomato seedlings, visual disease rating; conditions: tomato Botrytis, preventive spray on tomato seedlings
In short: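 Preventive test: B. cinerea spore inoculation one day after tomato seedlings were sprayed to run-off with compound suspended in 50/50 acetone–water plus 250 ppm surfactant. Plants held 48 h at 20° C in saturated air, then 3 days at 24° C; visual ratings scored 100 (full control) to 0 versus controls; some entries used 40 ppm.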

[5] = asterisk: 40 ppm test suspension
[6] = no asterisk (standard test suspension concentration, not 40 ppm)

SMILES	Test A rating (100 = 100% disease control, 0 = no disease control relative to the controls) [1, 5]	Test D rating (100 = 100% disease control, 0 = no disease control relative to the controls) [2, 5]	Test B rating (100 = 100% disease control, 0 = no disease control relative to the controls) [3, 5]	Test C rating (100 = 100% disease control, 0 = no disease control relative to the controls) [4, 5]	Test A rating (100 = 100% disease control, 0 = no disease control relative to the controls) [1, 6] [%]	Test D rating (100 = 100% disease control, 0 = no disease control relative to the controls) [2, 6] [%]	Test B rating (100 = 100% disease control, 0 = no disease control relative to the controls) [3, 6] [%]	Test C rating (100 = 100% disease control, 0 = no disease control relative to the controls) [4, 6] [%]
Cc1nc(Br)n(-c2c(F)cc(Cl)cc2F)c1C(O)c1ccc(F)cc1F (racemic) [compound 299]	100* %	87* %	100* %	100* %	–	–	–	–
COc1ccc(C(O)c2cnc(C)n2-c2ccc(F)cc2Cl)c(F)c1 (racemic) [compound 300]	95* %	0* %	95* %	0* %	–	–	–	–
Cc1ncc(C(O)c2ccc(F)cc2Br)n1-c1ccc(F)cc1F (racemic) [compound 301]	97* %	0* %	19* %	24* %	–	–	–	–
Cc1nc(Cl)n(-c2c(F)cc(F)cc2Br)c1C(O)c1ccc(F)cc1F (single isomer, unassigned) [compound 16]	–	–	–	–	100	100	100	100
Cc1nc(Cl)n(-c2c(F)cc(F)cc2Br)c1C(O)c1ccc(F)cc1F (single isomer, unassigned) [compound 17]	–	–	–	–	100	100	100	100
OC(c1ccc(F)cc1F)c1c(Cl)nc(Cl)n1-c1ccc(F)cc1Cl (single isomer, unassigned) [compound 19]	–	–	–	–	100	98	100	100
OC(c1ccc(F)cc1F)c1c(Cl)nc(Cl)n1-c1ccc(F)cc1Cl (single isomer, unassigned) [compound 20]	–	–	–	–	100	100	100	100
OC(c1ccc(F)cc1F)c1c(Cl)nc(Cl)n1-c1ccc(Cl)cc1Cl (single isomer, unassigned) [compound 21]	–	–	–	–	100	69	100	100
OC(c1ccc(F)cc1F)c1c(Cl)nc(Cl)n1-c1ccc(Cl)cc1Cl (single isomer, unassigned) [compound 22]	–	–	–	–	100	0	100	98
Cc1nc(Cl)n(-c2ccc(F)cc2Cl)c1C(O)c1ccc(F)cc1F (single isomer, unassigned) [compound 27]	–	–	–	–	100	99	100	100
Cc1nc(Cl)n(-c2ccc(F)cc2Cl)c1C(O)c1ccc(F)cc1F (single isomer, unassigned) [compound 28]	–	–	–	–	100	71	100	100
OC(c1ccc(Cl)cc1)c1c(Cl)nc(Cl)n1-c1ccc(F)cc1Cl (single isomer, unassigned) [compound 47]	–	–	–	–	100	0	100	99
OC(c1ccc(Cl)cc1)c1c(Cl)nc(Cl)n1-c1ccc(F)cc1Cl (single isomer, unassigned) [compound 48]	–	–	–	–	100	85	100	100
Cc1cc(F)ccc1C(O)c1c(Cl)nc(Cl)n1-c1ccc(F)cc1Cl (single isomer, unassigned) [compound 50]	–	–	–	–	100	90	100	100
Cc1cc(F)ccc1C(O)c1c(Cl)nc(Cl)n1-c1ccc(F)cc1Cl (single isomer, unassigned) [compound 51]	–	–	–	–	100	47	100	99
OC(c1ccc(F)cc1F)c1c(Cl)nc(Cl)n1-c1ccc(F)cc1F (single isomer, unassigned) [compound 78]	–	–	–	–	100	82	100	99
OC(c1ccc(F)cc1F)c1c(Cl)nc(Cl)n1-c1ccc(F)cc1F (single isomer, unassigned) [compound 79]	–	–	–	–	100	0	100	98
Cc1cc(F)ccc1C(O)c1c(Cl)nc(Cl)n1-c1ccc(Cl)cc1Cl (single isomer, unassigned) [compound 84]	–	–	–	–	96	0	100	0
Cc1cc(F)ccc1C(O)c1c(Cl)nc(Cl)n1-c1ccc(Cl)cc1Cl (single isomer, unassigned) [compound 85]	–	–	–	–	99	87	100	88
OC(c1ccc(Cl)cc1)c1c(Cl)nc(Cl)n1-c1ccc(Cl)cc1Cl (single isomer, unassigned) [compound 86]	–	–	–	–	96	56	100	73

From patent publication US20130143929A1, “FUNGICIDAL IMIDAZOLES” (EI DU PONT DE NEMOURS AND COMPANY, priority 2010, published 2013)
